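Method: 48-hour compound exposure of cells in 96-well plates, five concentrations, linear interpolation of endpoints. GI50 is the concentration that inhibits growth by half. The concentration for full growth arrest is given as TGI.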
What was measured:
Experiment in all cases: NCI anticancer screen, dose series, 48 h
786-0 renal = system: 786-0 renal
A498 renal = system: A498 renal
A549 NSCLC = system: A549 NSCLC
ACHN renal = system: ACHN renal
BT-549 breast = system: BT-549 breast
CAKI-1 renal = system: CAKI-1 renal
CCRF-CEM leukemia = system: CCRF-CEM leukemia
COLO 205 colon = system: COLO 205 colon
DU-145 prostate = system: DU-145 prostate
EKVX NSCLC = system: EKVX NSCLC
HCC-2998 colon = system: HCC-2998 colon
HCT-116 colon = system: HCT-116 colon
HCT-15 colon = system: HCT-15 colon
HL-60(TB) leukemia = system: HL-60(TB) leukemia
HOP-62 NSCLC = system: HOP-62 NSCLC
HOP-92 NSCLC = system: HOP-92 NSCLC
HS 578T breast = system: HS 578T breast
HT29 colon = system: HT29 colon
IGROV1 ovarian = system: IGROV1 ovarian
K-562 leukemia = system: K-562 leukemia
KM12 colon = system: KM12 colon
LOX IMVI melanoma = system: LOX IMVI melanoma
M14 melanoma = system: M14 melanoma
MCF7 breast = system: MCF7 breast
MDA-MB-231 breast = system: MDA-MB-231 breast
MDA-MB-435 = system: MDA-MB-435
MOLT-4 leukemia = system: MOLT-4 leukemia
NCI-H226 lung = system: NCI-H226 lung
NCI-H23 lung = system: NCI-H23 lung
NCI-H460 lung = system: NCI-H460 lung
NCI-H522 lung = system: NCI-H522 lung
NCI/ADR-RES ovarian = system: NCI/ADR-RES ovarian
OVCAR-3 ovarian = system: OVCAR-3 ovarian
OVCAR-4 ovarian = system: OVCAR-4 ovarian
OVCAR-5 ovarian = system: OVCAR-5 ovarian
OVCAR-8 ovarian = system: OVCAR-8 ovarian
PC-3 prostate = system: PC-3 prostate
RPMI-8226 leukemia = system: RPMI-8226 leukemia
RXF 393 renal = system: RXF 393 renal
SF-268 CNS = system: SF-268 CNS
SF-295 CNS = system: SF-295 CNS
SF-539 CNS = system: SF-539 CNS
SK-MEL-2 melanoma = system: SK-MEL-2 melanoma
SK-MEL-28 melanoma = system: SK-MEL-28 melanoma
SK-MEL-5 melanoma = system: SK-MEL-5 melanoma
SK-OV-3 ovarian = system: SK-OV-3 ovarian
SN12C renal = system: SN12C renal
SNB-19 CNS = system: SNB-19 CNS
SNB-75 CNS = system: SNB-75 CNS
SR leukemia = system: SR leukemia
SW-620 colon = system: SW-620 colon
T-47D breast = system: T-47D breast
TK-10 renal = system: TK-10 renal
U251 CNS = system: U251 CNS
UACC-257 melanoma = system: UACC-257 melanoma
UACC-62 melanoma = system: UACC-62 melanoma
UO-31 renal = system: UO-31 renal

Cc1ccc(C2C3Cc4ccccc4C3=NN2c2ccc(S(=O)(=O)NC(=O)NC3CCCCC3)cc2)cc1 (centres undefined)
GI50 (786-0 renal): 28.6 µM
TGI (786-0 renal): > 100 µM
GI50 (A498 renal): 22.4 µM
TGI (A498 renal): 39.6 µM
GI50 (A549 NSCLC): 12 µM
TGI (A549 NSCLC): 27.5 µM
GI50 (ACHN renal): 14.4 µM
TGI (ACHN renal): 28.5 µM
GI50 (BT-549 breast): 18 µM
TGI (BT-549 breast): 42.9 µM
GI50 (CAKI-1 renal): 16 µM
TGI (CAKI-1 renal): 42.1 µM
GI50 (CCRF-CEM leukemia): 8.33 µM
TGI (CCRF-CEM leukemia): 76.4 µM
GI50 (COLO 205 colon): 14.7 µM
TGI (COLO 205 colon): 33.1 µM
GI50 (DU-145 prostate): 23.1 µM
TGI (DU-145 prostate): 78.9 µM
GI50 (EKVX NSCLC): 20.2 µM
TGI (EKVX NSCLC): 67.1 µM
GI50 (HCC-2998 colon): 12.6 µM
TGI (HCC-2998 colon): 28.6 µM
GI50 (HCT-116 colon): 15.5 µM
TGI (HCT-116 colon): > 100 µM
GI50 (HCT-15 colon): 19.4 µM
TGI (HCT-15 colon): 76.7 µM
GI50 (HL-60(TB) leukemia): 22.9 µM
TGI (HL-60(TB) leukemia): 59.7 µM
GI50 (HOP-62 NSCLC): 45.7 µM
TGI (HOP-62 NSCLC): > 100 µM
GI50 (HOP-92 NSCLC): 11.6 µM
TGI (HOP-92 NSCLC): 27.6 µM
GI50 (HS 578T breast): 23.6 µM
TGI (HS 578T breast): 62.7 µM
GI50 (HT29 colon): 24.5 µM
TGI (HT29 colon): > 100 µM
GI50 (IGROV1 ovarian): 5.75 µM
TGI (IGROV1 ovarian): 24.5 µM
GI50 (K-562 leukemia): 11.5 µM
TGI (K-562 leukemia): 52.3 µM
GI50 (KM12 colon): 11.3 µM
TGI (KM12 colon): 39.1 µM
GI50 (LOX IMVI melanoma): 17.8 µM
TGI (LOX IMVI melanoma): 44.2 µM
GI50 (M14 melanoma): 33.5 µM
TGI (M14 melanoma): > 100 µM
GI50 (MCF7 breast): 13.5 µM
TGI (MCF7 breast): > 100 µM
GI50 (MDA-MB-231 breast): 28.2 µM
TGI (MDA-MB-231 breast): > 100 µM
GI50 (MDA-MB-435): 14.6 µM
TGI (MDA-MB-435): 41.3 µM
GI50 (MOLT-4 leukemia): 7.69 µM
TGI (MOLT-4 leukemia): > 100 µM
GI50 (NCI-H226 lung): 21.2 µM
TGI (NCI-H226 lung): 54.6 µM
GI50 (NCI-H23 lung): 15.2 µM
TGI (NCI-H23 lung): 37.1 µM
GI50 (NCI-H460 lung): 21.6 µM
TGI (NCI-H460 lung): > 100 µM
GI50 (NCI-H522 lung): 5.92 µM
TGI (NCI-H522 lung): 23.5 µM
GI50 (NCI/ADR-RES ovarian): 13.4 µM
TGI (NCI/ADR-RES ovarian): 35.1 µM
GI50 (OVCAR-3 ovarian): 15 µM
TGI (OVCAR-3 ovarian): 37.1 µM
GI50 (OVCAR-4 ovarian): 16.6 µM
TGI (OVCAR-4 ovarian): 39.2 µM
GI50 (OVCAR-5 ovarian): 27.3 µM
TGI (OVCAR-5 ovarian): 55.7 µM
GI50 (OVCAR-8 ovarian): 17.4 µM
TGI (OVCAR-8 ovarian): 43.6 µM
GI50 (PC-3 prostate): 9.66 µM
TGI (PC-3 prostate): 26.2 µM
GI50 (RPMI-8226 leukemia): 5.44 µM
TGI (RPMI-8226 leukemia): 40.8 µM
GI50 (RXF 393 renal): 18.7 µM
TGI (RXF 393 renal): 54.5 µM
GI50 (SF-268 CNS): 25.3 µM
TGI (SF-268 CNS): > 100 µM
GI50 (SF-295 CNS): 17.9 µM
TGI (SF-295 CNS): 54.2 µM
GI50 (SF-539 CNS): 20.2 µM
TGI (SF-539 CNS): 40.7 µM
GI50 (SK-MEL-2 melanoma): 18.6 µM
TGI (SK-MEL-2 melanoma): 38.6 µM
GI50 (SK-MEL-28 melanoma): 19.9 µM
TGI (SK-MEL-28 melanoma): 38 µM
GI50 (SK-MEL-5 melanoma): 14.5 µM
TGI (SK-MEL-5 melanoma): 30.3 µM
GI50 (SK-OV-3 ovarian): 20.4 µM
TGI (SK-OV-3 ovarian): 61.3 µM
GI50 (SN12C renal): 16.6 µM
TGI (SN12C renal): 33.1 µM
GI50 (SNB-19 CNS): 21.3 µM
TGI (SNB-19 CNS): 64 µM
GI50 (SNB-75 CNS): 44 µM
TGI (SNB-75 CNS): > 100 µM
GI50 (SR leukemia): 6.25 µM
TGI (SR leukemia): 32.1 µM
GI50 (SW-620 colon): 16.6 µM
TGI (SW-620 colon): 40.1 µM
GI50 (T-47D breast): 32.5 µM
TGI (T-47D breast): > 100 µM
GI50 (TK-10 renal): 11.7 µM
TGI (TK-10 renal): 28.4 µM
GI50 (U251 CNS): 13.2 µM
TGI (U251 CNS): 30.4 µM
GI50 (UACC-257 melanoma): 20.2 µM
TGI (UACC-257 melanoma): 39.7 µM
GI50 (UACC-62 melanoma): 12.7 µM
TGI (UACC-62 melanoma): 28.6 µM
GI50 (UO-31 renal): 11 µM
TGI (UO-31 renal): 26.1 µM
